Laboratory results reported in PMC8148378 (Chemical Science, 2019).
In brackets after ≈: the same amount, converted by molar mass.

Assays:
[1] = type: physicochemical
[2] = test system: P. aeruginosa ΔmexAB (PA14ΔmexAB); experiment: MIC determination; type: cell-based; details: Pseudomonas aeruginosa, read-out: MIC P. aeruginosa ΔmexAB
E. coli gyrase [3] = molecular target: T1, E. coli gyrase (Escherichia coli, UniProt P0AES4); experiment: DNA gyrase supercoiling assay, method a; type: biochemical
T1 sequence (P0AES4 whole entry): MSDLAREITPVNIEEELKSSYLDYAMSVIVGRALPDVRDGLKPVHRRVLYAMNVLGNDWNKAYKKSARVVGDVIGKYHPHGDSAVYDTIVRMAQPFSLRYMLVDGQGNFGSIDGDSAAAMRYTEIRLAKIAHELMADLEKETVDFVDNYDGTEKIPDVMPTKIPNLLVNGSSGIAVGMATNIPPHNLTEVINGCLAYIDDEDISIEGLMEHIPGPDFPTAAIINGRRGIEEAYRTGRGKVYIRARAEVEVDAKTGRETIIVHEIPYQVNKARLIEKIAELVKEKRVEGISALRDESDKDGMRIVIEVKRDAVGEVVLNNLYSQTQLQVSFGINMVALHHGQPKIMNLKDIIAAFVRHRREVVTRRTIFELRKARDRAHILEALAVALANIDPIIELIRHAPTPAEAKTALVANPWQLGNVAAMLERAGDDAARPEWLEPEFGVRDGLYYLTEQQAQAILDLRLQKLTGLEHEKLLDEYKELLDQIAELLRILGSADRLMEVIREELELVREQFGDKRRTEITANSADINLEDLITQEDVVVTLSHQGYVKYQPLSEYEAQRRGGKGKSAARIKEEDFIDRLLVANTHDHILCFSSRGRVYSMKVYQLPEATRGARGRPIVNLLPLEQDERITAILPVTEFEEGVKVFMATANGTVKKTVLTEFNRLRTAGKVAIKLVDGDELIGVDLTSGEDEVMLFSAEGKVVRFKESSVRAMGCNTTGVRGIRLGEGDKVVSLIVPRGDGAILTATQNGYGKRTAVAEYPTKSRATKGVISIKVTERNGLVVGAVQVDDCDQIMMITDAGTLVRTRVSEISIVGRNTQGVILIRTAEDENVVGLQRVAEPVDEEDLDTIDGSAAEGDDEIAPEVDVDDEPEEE

S. aureus ATCC29213 = experiment: MIC determination; type: cell-based; details: Staphylococcus aureus, ATCC29213, read-out: MIC S. aureus, ATCC29213
P. aeruginosa WT PA14 = experiment: MIC determination; type: cell-based, Pseudomonas aeruginosa; details: for MIC: Pseudomonas aeruginosa, PA14, read-out: MIC P. aeruginosa WT, PA14
E. coli ΔtolC = experiment: MIC determination; type: cell-based; details: Escherichia coli, read-out: MIC E. coli ΔtolC
E. coli WT DSM-1116 = experiment: MIC determination; type: cell-based; details: Escherichia coli, DSM1116, read-out: MIC E. coli WT, DSM-1116
P. mirabilis DSM-4479 = experiment: MIC determination, larger panel; type: cell-based; details: Proteus mirabilis, DSM4479, read-out: MIC P. mirabilis
S. marcescens DSM-30121 = experiment: MIC determination, larger panel; type: cell-based; details: Serratia marcescens, DSM30121, read-out: MIC S. marcescens
E. cloacae DSM-30054 = experiment: MIC determination, larger panel; type: cell-based; details: Enterobacter cloacae, DSM30054, read-out: MIC E. cloacae
K. pneumoniae DSM-30104 = experiment: MIC determination, larger panel; type: cell-based; details: Klebsiella pneumoniae, DSM30104, read-out: MIC K. pneumoniae
E. coli WT-3 = experiment: MIC determination, larger panel; type: cell-based; details: Escherichia coli, WT3, read-out: MIC E. coli WT-3
E. aerogenes DSM-30053 = experiment: MIC determination, larger panel; type: cell-based, Enterobacter aerogenes; details: Klebsiella aerogenes, DSM30053, read-out: MIC E. aerogenes
[4] = test system: P. aeruginosa ESBL 1 DSM-24600; experiment: MIC determination, larger panel; type: cell-based; details: Pseudomonas aeruginosa, DSM24600, read-out: MIC P. aeruginosa ESBL 1
[5] = test system: P. aeruginosa ESBL 2 DSM-46316; experiment: MIC determination, larger panel; type: cell-based; details: Pseudomonas aeruginosa, DSM46316, read-out: MIC P. aeruginosa ESBL 2
E. coli gyrase [6] = molecular target: T1, E. coli gyrase; experiment: DNA gyrase supercoiling assay, method b; type: biochemical; details: compared to 22
E. faecalis ATCC-29212 = experiment: MIC determination, larger panel; type: cell-based; details: Enterococcus faecalis, ATCC29212, read-out: MIC E. faecalis
P. dispersa = experiment: MIC against the AlbD producer; type: cell-based; details: Pantoea dispersa, read-out: MIC P. dispersa
A. baumannii DSM-30008 = experiment: MIC determination, larger panel; type: cell-based; details: Acinetobacter baumannii, DSM30008, read-out: MIC A. baumannii, DSM-30008

| Compound | pKa [1] | MIC [2] | IC50 (E. coli gyrase [3]) | MIC (S. aureus ATCC29213) | MIC P. aeruginosa WT (P. aeruginosa WT PA14; PA14) | MIC (P. aeruginosa WT PA14) | MIC (E. coli ΔtolC) | MIC (E. coli WT DSM-1116) | MIC (P. mirabilis DSM-4479) | MIC (S. marcescens DSM-30121) | MIC (E. cloacae DSM-30054) | MIC (K. pneumoniae DSM-30104) | MIC (E. coli WT-3) | MIC (E. aerogenes DSM-30053) | MIC [4] | MIC [5] | fold decrease of gyrase inhibition (E. coli gyrase [6]) | MIC (E. faecalis ATCC-29212) | MIC (P. dispersa) | MIC (A. baumannii DSM-30008) |
| --- | --- | --- | --- | --- | --- | --- | --- | --- | --- | --- | --- | --- | --- | --- | --- | --- | --- | --- | --- | --- |
| CC(C)Oc1c(NC(=O)c2ccc(NC(=O)[C@H](CC(N)=O)NC(=O)c3ccc(NC(=O)c4ccc([N+](=O)[O-])cc4)cc3)cc2)ccc(C(=O)Nc2ccc(C(=O)O)cc2)c1O [Compound 4] | < 8 | 1 µg/mL (≈ 1.2 µM) | 0.11 µM | 1 µg/mL (≈ 1.2 µM) | >64 µg/mL | > 64 µg/mL | 0.125 µg/mL (≈ 0.15 µM) | 1 µg/mL (≈ 1.2 µM) | – | – | – | – | – | – | – | – | – | – | – | – |
| CC(C)Oc1c(NC(=O)c2ccc(NC(=O)[C@H](CC(N)=O)NC(=O)c3ccc(NC(=O)c4ccc(C#N)s4)cc3)cc2)ccc(C(=O)Nc2ccc(C(=O)O)cc2)c1O [Compound 32] | – | – | – | – | – | – | – | – | > 64 µg/mL | > 64 µg/mL | > 64 µg/mL | > 64 µg/mL | 1 µg/mL (≈ 1.22 µM) | – | – | – | – | – | – | – |
| C/C(=C\c1ccc(O)cc1)C(=O)Nc1ccc(C(=O)N[C@@H](CC(N)=O)C(=O)Nc2ccc(C(=O)Nc3ccc(C(=O)Nc4ccc(C(=O)O)cc4)c(O)c3OC(C)C)cc2)cc1 [Compound 45] | – | – | – | – | – | – | – | – | 2 µg/mL (≈ 2.37 µM) | 64 µg/mL (≈ 75.9 µM) | > 64 µg/mL | > 64 µg/mL | 0.125 µg/mL (≈ 0.148 µM) | 1 µg/mL (≈ 1.19 µM) | > 64 µg/mL | 2 µg/mL (≈ 2.37 µM) | – | – | – | – |
| Cn1cc(NC(=O)C(CC(N)=O)NC(=O)c2ccc(NC(=O)c3ccc(C#N)cc3)cc2)cc1-c1nc2ccc(C(=O)Nc3ccc(C(=O)O)cc3)c(O)c2[nH]1 (stereo not drawn) [Compound 56] | – | – | 10.9 µM | – | – | – | – | – | – | – | – | – | – | – | – | – | approximately 100 fold | – | – | – |
| CC(C)Oc1c(-n2cc(-c3ccc(NC(=O)C(CC(N)=O)NC(=O)c4ccc(NC(=O)c5ccc(C#N)cc5)cc4)cc3)nn2)ccc(C(=O)Nc2ccc(C(=O)O)cc2)c1O (stereo not drawn) [Compound 61] | – | – | – | – | – | – | – | – | 16 µg/mL (≈ 19.1 µM) | > 64 µg/mL | > 64 µg/mL | > 64 µg/mL | 16 µg/mL (≈ 19.1 µM) | 1 µg/mL (≈ 1.2 µM) | 16 µg/mL (≈ 19.1 µM) | 16 µg/mL (≈ 19.1 µM) | ca. 20 fold | 16 µg/mL (≈ 19.1 µM) | 1 µg/mL (≈ 1.2 µM) | 8 µg/mL (≈ 9.57 µM) |
| CC(C)Oc1c(NC(=O)c2ccc(NC(=O)c3ccc(NC(=O)[C@H](CC(N)=O)NC(=O)c4ccc(NC(=O)c5ccc(C#N)cn5)cc4)cc3)c(OC(C)C)c2O)ccc(C(=O)O)c1O [Compound 80] | – | 0.5 µg/mL (≈ 0.564 µM) | – | ≤ 0.03 µg/mL | – | > 64 µg/mL | ≤ 0.03 µg/mL | 0.06 µg/mL (≈ 0.0677 µM) | – | > 64 µg/mL | > 64 µg/mL | – | 0.5 µg/mL (≈ 0.564 µM) | 1 µg/mL (≈ 1.13 µM) | > 64 µg/mL | > 64 µg/mL | – | ≤ 0.03 µg/mL | – | 0.25 µg/mL (≈ 0.282 µM) |
| CC(C)Oc1c(NC(=O)c2ccc(NC(=O)c3ccc(NC(=O)[C@H](CC(N)=O)NC(=O)c4ccc(NC(=O)c5ccc(C#N)s5)cc4)cc3)c(OC(C)C)c2O)ccc(C(=O)O)c1O [Compound 81] | – | 2 µg/mL (≈ 2.24 µM) | – | 0.06 µg/mL (≈ 0.0673 µM) | – | > 64 µg/mL | 0.06 µg/mL (≈ 0.0673 µM) | 0.125 µg/mL (≈ 0.14 µM) | > 64 µg/mL | > 64 µg/mL | > 64 µg/mL | 1 µg/mL (≈ 1.12 µM) | 0.5 µg/mL (≈ 0.561 µM) | 1 µg/mL (≈ 1.12 µM) | > 64 µg/mL | > 64 µg/mL | – | ≤ 0.03 µg/mL | – | 1 µg/mL (≈ 1.12 µM) |
